Results on 10 compounds are retold here after PubChem BioAssay (NCI).

The structures appear in SMILES notation.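 How tested: cells in 96-well plates exposed to compound for 48 hours at five concentrations. GI50 is the concentration that inhibits growth by half. TGI: total growth inhibition.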

One may read the GI50 as the concentration giving 50% growth inhibition. For orientation: TGI means the concentration at which net growth stops. The low end stands for greater sensitivity of the cells, the high end for lower sensitivity of the cells.

Among the test systems are CAKI-1 renal; HCT-116 colon; IGROV1 ovarian; OVCAR-8 ovarian; PC-3 prostate; SK-MEL-5 melanoma; SK-OV-3 ovarian; SW-620 colon; UACC-257 melanoma; LOX IMVI melanoma.
What all share (test): DTP human tumour cell line panel, 48 h

On to `C=C(CN1CCc2[nH]c3ccc(F)cc3c2C1)c1ccc(C(=O)Nc2ccccc2N)cc1`, for which the GI50 in the assay on CAKI-1 renal was 1.93 µM; with HCT-116 colon, 0.367 µM; in the assay on IGROV1 ovarian, 0.41 µM; with OVCAR-8 ovarian it was 0.772 µM; in the assay with PC-3 prostate, 4.32 µM; in the assay with SK-MEL-5 melanoma, 0.502 µM. The GI50 is 2.92 µM in the assay with SK-OV-3 ovarian, 0.715 µM in the assay with SW-620 colon and 0.6 µM in the assay with UACC-257 melanoma. Moreover, the TGI in the assay with CAKI-1 renal worked out at 5.91 µM; with HCT-116 colon, 5.04 µM; in the assay on IGROV1 ovarian it was 3.53 µM; with OVCAR-8 ovarian it was 3.82 µM; in the assay on PC-3 prostate, 52.3 µM; in the assay on SK-MEL-5 melanoma, 1.83 µM. Moreover, the TGI in the assay on SK-OV-3 ovarian was determined as 11.8 µM; with SW-620 colon, 15.6 µM; in the assay on UACC-257 melanoma, 2.71 µM.

Consider `O=C1CC(c2ccc(Cl)cc2)=Nc2ccccc2N1`, for which the TGI was above 100 µM in the assay with CAKI-1 renal; 59.6 µM in the assay with HCT-116 colon; above 100 µM in the assay on IGROV1 ovarian; 58.8 µM in the assay on LOX IMVI melanoma; 76.6 µM in the assay on OVCAR-8 ovarian; above 100 µM in the assay on SK-MEL-5 melanoma. Besides, the TGI with SK-OV-3 ovarian was 97.3 µM; with SW-620 colon, 47.9 µM; in the assay with UACC-257 melanoma, above 100 µM.

With `CCCCCCCCCCCCCCNC(=O)Nc1ccc(Cl)c(Cl)c1`, the GI50 is 2.37 µM in the assay on HCT-116 colon; 1.33 µM in the assay on IGROV1 ovarian; 3.23 µM in the assay with LOX IMVI melanoma; 3.16 µM in the assay on OVCAR-8 ovarian; 2.67 µM in the assay on PC-3 prostate; 1.68 µM in the assay with SK-MEL-5 melanoma. Besides, the GI50 in the assay on SK-OV-3 ovarian is 3 µM; in the assay on SW-620 colon, 3.18 µM; in the assay with UACC-257 melanoma, 2.78 µM. The TGI in the assay on HCT-116 colon is above 23.3 µM; in the assay with LOX IMVI melanoma it was above 100 µM; in the assay with OVCAR-8 ovarian, above 31.4 µM; with PC-3 prostate, above 37.1 µM; in the assay with SK-MEL-5 melanoma, 3.23 µM; in the assay with SK-OV-3 ovarian, above 28.3 µM. Also, the values for the TGI with SW-620 colon and with UACC-257 melanoma were above 100 µM and 11.3 µM, respectively.

Turning to `COc1ccccc1Oc1nccc(-c2c(-c3ccc(F)cc3)ncn2C2CCNCC2)n1`, the GI50 with CAKI-1 renal was above 23.2 µM; with HCT-116 colon, 19.6 µM; with IGROV1 ovarian it was above 22.6 µM; in the assay on LOX IMVI melanoma, 17.6 µM; in the assay with OVCAR-8 ovarian, above 25 µM; with PC-3 prostate, above 20.9 µM. Also, the GI50 in the assay with SK-MEL-5 melanoma was 7.2 µM; with SK-OV-3 ovarian, above 25 µM; in the assay on SW-620 colon, above 25 µM. The TGI with CAKI-1 renal, in the assay on HCT-116 colon, in the assay on IGROV1 ovarian, in the assay with LOX IMVI melanoma, in the assay with OVCAR-8 ovarian and in the assay on PC-3 prostate was above 25 µM each time. The TGI in the assay with SK-MEL-5 melanoma, in the assay on SK-OV-3 ovarian and in the assay on SW-620 colon was above 25 µM throughout.

Turning to `CNCc1ccc(-c2cc(-c3nc(-c4ccc(S(=O)(=O)C(C)C)cc4)cnc3N)on2)cc1`, the GI50 in the assay on CAKI-1 renal is 2.71 µM; in the assay on HCT-116 colon, 1.08 µM; in the assay on IGROV1 ovarian, 1.2 µM; with OVCAR-8 ovarian, 2.31 µM; in the assay with PC-3 prostate, 1.97 µM; in the assay with SK-MEL-5 melanoma it was 2.59 µM. For the same compound, the figures for the GI50 in the assay on SK-OV-3 ovarian, with SW-620 colon and in the assay with UACC-257 melanoma were 6.57 µM, 1.43 µM and 3.05 µM, respectively. Also, the TGI in the assay on CAKI-1 renal turned out to be 21.1 µM; in the assay on HCT-116 colon, 2.3 µM; in the assay with IGROV1 ovarian, 10.5 µM; with OVCAR-8 ovarian, 5.94 µM; in the assay on PC-3 prostate it was 8.32 µM; in the assay with SK-MEL-5 melanoma, 12.3 µM. Further, the values for the TGI in the assay with SK-OV-3 ovarian, in the assay with SW-620 colon and in the assay with UACC-257 melanoma were 24.7 µM, 3.78 µM and 9.35 µM, respectively.

Consider `COc1cc(/C=C/c2csnn2)cc(OC)c1OC`, for which the TGI in the assay on CAKI-1 renal, in the assay on HCT-116 colon, in the assay with IGROV1 ovarian, in the assay with LOX IMVI melanoma, in the assay with OVCAR-8 ovarian and in the assay with SK-MEL-5 melanoma was above 100 µM each time. Also, the TGI with SK-OV-3 ovarian, with SW-620 colon and in the assay on UACC-257 melanoma was above 100 µM throughout.

As to `CCCCCCCCOCC(COC(=O)CCCCCCC)OC(=O)CCCCCCC` (centres undefined), the TGI in the assay on CAKI-1 renal, in the assay on HCT-116 colon, in the assay on IGROV1 ovarian, with LOX IMVI melanoma, in the assay with OVCAR-8 ovarian and in the assay with SK-MEL-5 melanoma was above 100 µM in each case. Moreover, the TGI in the assay with SK-OV-3 ovarian, in the assay with SW-620 colon and in the assay with UACC-257 melanoma was above 100 µM throughout.

Consider `O=NN(CCCl)C(=O)NC1CCC(CC(=O)O)CC1` (centres undefined), for which the TGI in the assay with CAKI-1 renal, with HCT-116 colon, in the assay with IGROV1 ovarian, in the assay with LOX IMVI melanoma, with OVCAR-8 ovarian and with SK-MEL-5 melanoma was above 100 µM throughout. The TGI in the assay on SK-OV-3 ovarian, with SW-620 colon and with UACC-257 melanoma was above 100 µM each time.

`Fc1ccc(NC(c2ccc(F)cc2)C2CCN(CCCCc3ccccc3)CC2)cc1` (centres undefined): the GI50 is 1.41 µM with HCT-116 colon; 2.18 µM in the assay on IGROV1 ovarian; 1.55 µM with LOX IMVI melanoma; 2.05 µM in the assay on OVCAR-8 ovarian; 1.82 µM in the assay on PC-3 prostate; 1.63 µM with SK-MEL-5 melanoma. Further, the GI50 was 1.86 µM with SK-OV-3 ovarian, 1.26 µM in the assay with SW-620 colon and 1.97 µM with UACC-257 melanoma. In addition, the TGI with HCT-116 colon was 2.75 µM; in the assay with IGROV1 ovarian, 5.17 µM; in the assay with LOX IMVI melanoma it was 2.89 µM; with OVCAR-8 ovarian it was 4.19 µM; in the assay with PC-3 prostate, 3.76 µM; in the assay on SK-MEL-5 melanoma, 3.1 µM. The TGI turned out to be 3.94 µM with SK-OV-3 ovarian, 2.57 µM in the assay on SW-620 colon and 3.79 µM in the assay on UACC-257 melanoma.

`C[C@H](C(=O)O)C(=O)NC(=O)N(Cc1ccccc1)N=O`: the TGI in the assay on CAKI-1 renal, in the assay with HCT-116 colon, in the assay on IGROV1 ovarian, in the assay with LOX IMVI melanoma, in the assay with OVCAR-8 ovarian and with SK-MEL-5 melanoma was above 100 µM throughout. Further, the TGI in the assay with SK-OV-3 ovarian, in the assay with SW-620 colon and with UACC-257 melanoma was above 100 µM each time.
